Counter-ions that a name gives are not always drawn.
Columns and labels:
Assay type in all cases: biochemical
[1] = target: T1, recombinant human MAO-A (monoamine oxidase-A) (Homo sapiens, UniProt P21397); test: Amplex Red HRP-coupled amine oxidase assay, recombinant human MAO-A; details: 0.5 mM tyramine substrate, read-out: Inhibitory activity (IC50, nM) MAO-A
T1 construct: purchased Sigma-Aldrich
T1 sequence (P21397 1-527): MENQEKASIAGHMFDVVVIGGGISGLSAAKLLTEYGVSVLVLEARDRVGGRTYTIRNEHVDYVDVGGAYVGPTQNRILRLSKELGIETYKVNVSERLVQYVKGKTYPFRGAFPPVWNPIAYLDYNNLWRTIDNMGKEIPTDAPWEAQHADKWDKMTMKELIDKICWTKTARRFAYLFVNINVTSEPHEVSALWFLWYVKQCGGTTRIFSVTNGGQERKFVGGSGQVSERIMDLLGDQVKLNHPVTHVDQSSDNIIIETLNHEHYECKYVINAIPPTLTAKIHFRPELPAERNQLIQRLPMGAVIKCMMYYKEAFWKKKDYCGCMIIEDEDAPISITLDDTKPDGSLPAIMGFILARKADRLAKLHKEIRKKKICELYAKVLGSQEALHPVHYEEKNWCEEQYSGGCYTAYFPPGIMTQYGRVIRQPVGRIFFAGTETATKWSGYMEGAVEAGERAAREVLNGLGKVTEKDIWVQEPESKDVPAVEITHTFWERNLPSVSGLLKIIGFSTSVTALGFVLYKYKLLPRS
Procedure: (§1) The activities of the compounds according to the present invention against recombinant human Lysyl Oxidase-Like 2 (recombinant human LOXL2, R&D systems) were evaluated by measuring the levels of hydrogen peroxide in the HRP (horseradish peroxidase) coupled reactions, with the Amplex Red Hydrogen Peroxide Assay Kit (Molecular Probes, Invitrogen, USA). The tests were carried out at 37° C., and putrescine was used as a substrate. In the HRP coupling reaction, the oxidation of 10-acetyl-3,7-dihydroxyphenoxazine (Amplex Red reagent) by hydrogen peroxide generates a fluorescent product, i.e., resorufin. Briefly, the test compounds were dissolved in dimethyl sulfoxide (DMSO) at a concentration of 20 mM. Dose-response measurements were carried out by serial dilutions in DMSO to generate a six-point curve. The upper concentration was adjusted according to the potency of the compound, and then diluted with the reaction buffer to obtain a final DMSO concentration of 1%. Purified human LOXL2 in 50 mM sodium phosphate buffer (pH7.4) was added to each well of a 96 well black plate. The test compounds dissolved in DMSO were incubated with the human LOXL2 enzyme at 37° C. for 60 minutes. After the incubation for 60 minutes, a reaction mixture containing 400 μM Amplex Red reagent, 30 mM putrescine, and 2 U/mL HRP in 50 mM sodium phosphate buffer (pH 7.4) was added to each well. Fluorescence was measured with a microplate reader (Flexstation3, Molecular Devices), under the conditions of excitation at 530 nm and emission at 590 nm, 1 hour after the addition of the mixture. Inhibition by each compound was measured as % reduction in signal, compared to the control without an inhibitor (diluted DMSO only). The data were fixed to a four-variable logistic model, and […] values were calculated using the GraphPad Prism program.
(§2) And, the activities of the compounds according to the present invention against recombinant human MAO-A (monoamine oxidase-A, Sigma-Aldrich) and recombinant human MAO-B (monoamine oxidase-B, Sigma-Aldrich) were evaluated in a similar manner to the activity evaluation method for recombinant human LOXL2, using 0.5 mM tyramine and 1 mM benzylamine as a substrate, respectively. In addition, the activities of the compounds according to the present invention against recombinant human DAO (diamine oxidase, R&D systems) were evaluated in a similar manner to the activity evaluation method for recombinant human LOXL2, using 1 mM putrescine as a substrate.

[2] = target: T2, recombinant human Lysyl Oxidase-Like 2 (LOXL2) (Homo sapiens, UniProt Q9Y4K0); test: Amplex Red HRP-coupled amine oxidase assay, recombinant human LOXL2; details: 60 min incubation with enzyme at 37° C., putrescine substrate, read-out: Inhibitory activity (IC50, nM) human LOXL2
T2 construct: purchased R&D systems
T2 sequence (Q9Y4K0 26-774): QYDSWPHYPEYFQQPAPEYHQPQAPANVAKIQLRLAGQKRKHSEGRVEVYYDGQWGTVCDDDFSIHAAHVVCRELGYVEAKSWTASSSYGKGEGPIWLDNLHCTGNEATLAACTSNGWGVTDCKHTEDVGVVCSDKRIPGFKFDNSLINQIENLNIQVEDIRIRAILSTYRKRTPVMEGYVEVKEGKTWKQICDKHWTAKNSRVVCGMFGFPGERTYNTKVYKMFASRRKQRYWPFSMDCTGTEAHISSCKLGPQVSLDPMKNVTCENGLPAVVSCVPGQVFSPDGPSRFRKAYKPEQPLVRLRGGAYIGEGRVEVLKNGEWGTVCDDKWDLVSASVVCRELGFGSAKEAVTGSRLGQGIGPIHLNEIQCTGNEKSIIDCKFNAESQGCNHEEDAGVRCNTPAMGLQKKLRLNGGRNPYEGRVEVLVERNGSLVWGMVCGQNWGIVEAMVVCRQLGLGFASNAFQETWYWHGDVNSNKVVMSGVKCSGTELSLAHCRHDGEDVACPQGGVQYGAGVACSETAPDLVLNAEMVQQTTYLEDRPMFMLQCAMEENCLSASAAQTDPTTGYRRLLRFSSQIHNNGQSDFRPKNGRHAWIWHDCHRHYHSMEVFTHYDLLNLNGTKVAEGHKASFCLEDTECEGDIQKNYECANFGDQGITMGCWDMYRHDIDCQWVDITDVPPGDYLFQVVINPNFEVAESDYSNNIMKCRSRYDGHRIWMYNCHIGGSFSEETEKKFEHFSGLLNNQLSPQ
Method in brief: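 Putrescine substrate (30 mM) in 50 mM sodium phosphate pH 7.4, 37 °C; compounds preincubated 60 min with enzyme, 1% DMSO final, six-point curves. H2O2 detected via 400 μM Amplex Red/2 U/mL HRP, fluorescence (ex 530/em 590 nm) after 1 h; IC50 from four-parameter logistic fit of % signal reduction.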

[3] = target: T3, recombinant human MAO-B (monoamine oxidase-B) (Homo sapiens, UniProt P27338); test: Amplex Red HRP-coupled amine oxidase assay, recombinant human MAO-B; details: 1 mM benzylamine substrate, read-out: Inhibitory activity (IC50, nM) MAO-B
T3 construct: purchased Sigma-Aldrich
T3 sequence (P27338 1-520): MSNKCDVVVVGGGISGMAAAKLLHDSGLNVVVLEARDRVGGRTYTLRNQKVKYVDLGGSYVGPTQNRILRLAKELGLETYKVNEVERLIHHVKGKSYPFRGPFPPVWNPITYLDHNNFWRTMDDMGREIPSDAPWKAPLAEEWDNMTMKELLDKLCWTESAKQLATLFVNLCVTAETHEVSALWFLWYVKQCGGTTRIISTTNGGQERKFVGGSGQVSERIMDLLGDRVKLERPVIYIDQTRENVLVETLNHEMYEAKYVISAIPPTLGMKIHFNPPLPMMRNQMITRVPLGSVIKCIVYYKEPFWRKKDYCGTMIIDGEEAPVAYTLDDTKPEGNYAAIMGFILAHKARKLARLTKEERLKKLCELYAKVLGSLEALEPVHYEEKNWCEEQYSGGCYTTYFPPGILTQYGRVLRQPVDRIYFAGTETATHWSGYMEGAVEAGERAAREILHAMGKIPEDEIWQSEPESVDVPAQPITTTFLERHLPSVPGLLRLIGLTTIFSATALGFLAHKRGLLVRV
Procedure: as §1, §2

[4] = target: T4, recombinant human DAO (diamine oxidase) (Homo sapiens, UniProt P19801); test: Amplex Red HRP-coupled amine oxidase assay, recombinant human DAO; details: 1 mM putrescine substrate, read-out: Inhibitory activity (IC50, nM) DAO
T4 construct: purchased R&D systems
T4 sequence (P19801 20-751): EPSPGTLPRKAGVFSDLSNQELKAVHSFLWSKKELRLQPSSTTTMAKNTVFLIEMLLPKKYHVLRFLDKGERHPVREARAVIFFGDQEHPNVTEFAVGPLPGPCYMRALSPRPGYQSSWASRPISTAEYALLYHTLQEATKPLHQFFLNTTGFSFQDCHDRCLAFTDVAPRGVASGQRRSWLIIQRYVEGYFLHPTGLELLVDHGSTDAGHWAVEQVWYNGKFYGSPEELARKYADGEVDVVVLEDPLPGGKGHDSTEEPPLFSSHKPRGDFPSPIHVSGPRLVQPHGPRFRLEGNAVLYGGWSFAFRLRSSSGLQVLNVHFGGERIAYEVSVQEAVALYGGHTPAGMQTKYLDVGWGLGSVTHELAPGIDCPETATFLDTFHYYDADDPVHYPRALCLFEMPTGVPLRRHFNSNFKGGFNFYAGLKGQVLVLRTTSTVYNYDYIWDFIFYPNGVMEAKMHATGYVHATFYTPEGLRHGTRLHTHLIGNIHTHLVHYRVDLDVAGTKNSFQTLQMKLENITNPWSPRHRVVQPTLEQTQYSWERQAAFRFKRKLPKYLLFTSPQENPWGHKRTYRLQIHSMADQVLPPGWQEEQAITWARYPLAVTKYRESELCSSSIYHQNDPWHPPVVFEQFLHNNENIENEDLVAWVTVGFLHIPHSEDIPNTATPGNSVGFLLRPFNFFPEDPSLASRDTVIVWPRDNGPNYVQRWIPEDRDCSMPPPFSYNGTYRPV
Method in brief: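 Enzyme preincubated 60 min at 37 °C with compound (six-point curve, 1% DMSO final) in 50 mM sodium phosphate pH 7.4, then Amplex Red 400 μM and HRP 2 U/mL added with substrate: MAO-A 0.5 mM tyramine, MAO-B 1 mM benzylamine, DAO 1 mM putrescine. Resorufin fluorescence read after 1 h; IC50 by four-parameter logistic fit.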

| Structure (SMILES) | IC50 [1] [nM] | IC50 [2] [nM] | IC50 [3] [nM] | IC50 [4] [nM] |
| --- | --- | --- | --- | --- |
| COC(=O)c1cc(-c2cc(S(=O)(=O)C(F)(F)F)ccc2C)c2ncn(C/C(F)=C/CN)c2c1 [Example 35, methyl (Z)-1-(4-amino-2-fluorobut-2-en-1-yl)-4-(2-methyl-5-((trifluoromethyl)sulfonyl)phenyl)-1H-benzo[d]imidazol-6-carboxylate hydrochloride] | > 100000 | 67.6 | > 100000 | 47700 |
| CNS(=O)(=O)c1cccc(-c2cccc3c2nc(C(F)(F)F)n3C/C(F)=C/CN)c1 [Example 53, (Z)-3-(1-(4-amino-2-fluorobut-2-en-1-yl)-2-(trifluoromethyl)-1H-benzo[d]imidazol-4-yl)-N-methylbenzenesulfonamide hydrochloride] | > 100000 | 68 | > 100000 | > 100000 |
| Cc1nc2c(-c3cccc(S(=O)(=O)N(C)C)c3)cccc2n1C/C(F)=C/CN [Example 56, (Z)-3-(1-(4-amino-2-fluorobut-2-en-1-yl)-2-methyl-1H-benzo[d]imidazol-4-yl)-N,N-dimeth ylbenzenesulfonamide hydrochloride] | 6540 | 74 | > 100000 | 227 |
| Cc1nc2c(-c3cccc(S(=O)(=O)N4CCCC4)c3)cccc2n1C/C(F)=C/CN [Example 60, (Z)-3-fluoro-4-(2-methyl-4-(3-(pyrrolidin-1-ylsulfonyl)phenyl)-1H-benzo[d]imidazol-1-yl)but-2-en-1-amine hydrochloride] | 64200 | 92 | > 100000 | 636 |

Second part, the compound after the results:

| IC50 [1] [nM] | IC50 [2] [nM] | IC50 [3] [nM] | IC50 [4] [nM] | Structure (SMILES) |
| --- | --- | --- | --- | --- |
| > 100000 | 34.9 | > 100000 | 1370 | COC(=O)c1cc(-c2cccc(S(=O)(=O)NC3CC3)c2)c2ncn(C/C(F)=C/CN)c2c1 [Example 29, methyl (Z)-1-(4-amino-2-fluorobut-2-en-1-yl)-4-(3-(N-cyclopropylsulfamoyl)phenyl)-1H-benzo[d]imidazol-6-carboxylate hydrochloride] |
| > 100000 | 29.7 | > 100000 | 3460 | CNS(=O)(=O)c1cccc(-c2cc(C(=O)OC)cc3c2ncn3C/C(F)=C/CN)c1 [Example 30, methyl (Z)-1-(4-amino-2-fluorobut-2-en-1-yl)-4-(3-(N-methylsulfamoyl)phenyl)-1H-benzo[d]imidazol-6-carboxylate hydrochloride] |
| 24600 | 19.4 | > 100000 | 139 | COC(=O)c1cc(-c2cccc(S(=O)(=O)N(C)C)c2)c2ncn(C/C(F)=C/CN)c2c1 [Example 31, methyl (Z)-1-(4-amino-2-fluorobut-2-en-1-yl)-4-(3-(N,N-dimethysulfamoyl)phenyl)-1H-benzo[d]imidazol-6-carboxylate hydrochloride] |
| > 100000 | 37.6 | > 100000 | 495 | CCS(=O)(=O)c1cccc(-c2cc(C(=O)OC)cc3c2ncn3C/C(F)=C/CN)c1 [Example 34, methyl (Z)-1-(4-amino-2-fluorobut-2-en-1-yl)-4-(3-(ethylsulfonyl)phenyl)-1H-benzo[d]imidazol-6-carboxylate hydrochloride] |
| > 100000 | 82.3 | > 100000 | 44500 | COC(=O)c1cc(-c2cccc(P(C)(C)=O)c2)c2ncn(C/C(F)=C/CN)c2c1 [Example 38, methyl (Z)-1-(4-amino-2-fluorobut-2-en-1-yl)-4-(3-(dimethylphosphoryl)phenyl)-1H-benzo[d]imidazol-6-carboxylate hydrochloride] |

— patent US12686665B2, “Bicyclic fused ring derivative or salt thereof and pharmaceutical composition comprising same” (YUHAN CORPORATION, priority 2021, dated 2026)
